pKi: −log10 of the molar value.
Legend:
α7 nAChR [1] = target: α7 nAChR (Rattus norvegicus, UniProt Q05941); experiment: [3H]-MLA competition binding assay, rat brain membranes; conditions: Ki, inhibition of [3H]-MLA binding (3.0 to 4.0 nM), Sprague-Dawley rat whole brain minus cerebellum homogenate, 1 hour at 25° C
Protocol: Membrane Preparation. Male Sprague-Dawley rats (300-350 g) are sacrificed by decapitation and the brains (whole brain minus cerebellum) are dissected quickly, weighed and homogenized in 9 volumes/g wet weight of ice-cold 0.32 M sucrose using a rotating pestle on setting 50 (10 up and down strokes). The homogenate is centrifuged at 1,000×g for 10 minutes at 4° C. The supernatant is collected and centrifuged at 20,000×g for 20 minutes at 4° C. The resulting pellet is resuspended to a protein concentration of 1-8 mg/mL. Aliquots of 5 mL homogenate are frozen at −80° C. until needed for the assay.
Binding Assay. […] Filters are pre-soaked in 50 mm Tris HCl pH 7.0-0.05% polyethylenimine. The filters are rapidly washed two times with 5 mL aliquots of cold 0.9% saline and then counted for radioactivity by liquid
Data Analysis. […] Hill coefficients were obtained using non-linear regression (GraphPad Prism sigmoidal dose-response with variable slope).

5HT3R = target: T1, 5HT3R (Homo sapiens, UniProt P46098); conditions: cited from earlier work
T1 sequence (P46098 24-478): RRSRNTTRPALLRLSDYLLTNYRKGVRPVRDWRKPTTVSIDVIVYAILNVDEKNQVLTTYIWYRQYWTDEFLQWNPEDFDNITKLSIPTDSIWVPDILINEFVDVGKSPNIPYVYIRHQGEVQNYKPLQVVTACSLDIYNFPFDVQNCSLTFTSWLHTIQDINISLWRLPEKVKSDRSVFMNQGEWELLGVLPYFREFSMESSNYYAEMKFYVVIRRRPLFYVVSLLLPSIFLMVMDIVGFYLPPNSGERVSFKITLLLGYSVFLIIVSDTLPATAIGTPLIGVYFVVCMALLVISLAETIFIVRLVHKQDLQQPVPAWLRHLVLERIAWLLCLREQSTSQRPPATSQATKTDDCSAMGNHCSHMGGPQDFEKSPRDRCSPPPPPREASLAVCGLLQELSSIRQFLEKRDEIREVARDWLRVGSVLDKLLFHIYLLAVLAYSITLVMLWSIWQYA

α7 nAChR [2] = target: α7 nAChR (Homo sapiens, UniProt P36544); conditions: cited from earlier work
Chain of α7 nAChR (Homo sapiens, UniProt P36544) (P36544 23-502): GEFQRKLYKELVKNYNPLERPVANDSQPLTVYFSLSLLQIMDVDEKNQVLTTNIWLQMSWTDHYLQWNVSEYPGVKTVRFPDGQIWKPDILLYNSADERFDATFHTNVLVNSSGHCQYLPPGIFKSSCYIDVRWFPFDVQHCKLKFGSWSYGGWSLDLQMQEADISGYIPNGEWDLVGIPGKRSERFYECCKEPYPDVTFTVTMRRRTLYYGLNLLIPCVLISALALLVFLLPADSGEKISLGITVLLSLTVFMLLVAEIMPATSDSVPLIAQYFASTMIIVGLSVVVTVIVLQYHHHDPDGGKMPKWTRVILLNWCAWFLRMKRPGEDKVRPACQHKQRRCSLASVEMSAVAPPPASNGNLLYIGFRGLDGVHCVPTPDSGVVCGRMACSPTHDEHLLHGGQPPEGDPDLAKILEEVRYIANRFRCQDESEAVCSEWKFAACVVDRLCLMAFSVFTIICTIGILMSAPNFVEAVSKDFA

Chain of α7 nAChR (Rattus norvegicus, UniProt Q05941) (Q05941 23-502): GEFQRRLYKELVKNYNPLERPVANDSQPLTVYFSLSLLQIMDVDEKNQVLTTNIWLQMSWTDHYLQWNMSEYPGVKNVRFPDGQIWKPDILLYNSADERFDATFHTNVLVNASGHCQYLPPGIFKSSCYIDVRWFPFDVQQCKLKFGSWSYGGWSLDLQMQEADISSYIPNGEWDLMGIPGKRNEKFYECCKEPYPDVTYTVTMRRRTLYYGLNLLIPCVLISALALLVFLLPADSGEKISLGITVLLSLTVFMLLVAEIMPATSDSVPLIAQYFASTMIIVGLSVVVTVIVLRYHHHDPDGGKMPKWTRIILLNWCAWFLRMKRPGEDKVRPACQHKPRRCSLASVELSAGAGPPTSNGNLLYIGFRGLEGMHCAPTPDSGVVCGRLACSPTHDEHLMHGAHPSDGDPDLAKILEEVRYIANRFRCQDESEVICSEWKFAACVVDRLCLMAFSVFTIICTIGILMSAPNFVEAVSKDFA

Compound | pKi (α7 nAChR [1]) | other results
O=C(N[C@H]1CN2CCC1CC2)c1ccc(C#Cc2ccccc2)o1 [Example 150, N-[(3R)-1-Azabicyclo[2.2.2]oct-3-yl]-5-(phenylethynyl)-furan-2-carboxamide 4-Methylbenzenesulfonate] | 6.48 to 6.54 | 
O=C(N[C@H]1CN2CCC1CC2)c1ccc(Oc2ccccc2)o1 [Example 151, N-[(3R)-1-Azabicyclo[2.2.2]oct-3-yl]-5-phenoxy-furan-2-carboxamide 4-Methylbenzenesulfonate] | 6.08 to 6.65 | 
Cn1c(C(=O)N[C@H]2CN3CCC2CC3)ccc1-c1ccccc1 [Example 152, N-[(3R)-1-Azabicyclo[2.2.2]oct-3-yl]-1-methyl-5-phenyl-1H-pyrrole-2-carboxamide] | 7.19 to 7.70 | 
O=C(N[C@H]1CN2CCC1CC2)c1ncc(-c2ccccc2)o1 [Example 153, N-[(3R)-1-azabicyclo[2.2.2]oct-3-yl]-5-phenyl-1,3-oxazole-2-carboxamide 4-methylbenzenesulfonate] | 5.81 | 
O=C(N[C@H]1CN2CCC1CC2)c1nc(-c2ccccc2)no1 [Example 154, N-[(3R)-1-azabicyclo[2.2.2]oct-3-yl]-3-phenyl-1,2,4-oxadiazole-5-carboxamide 4-methylbenzenesulfonate] | < 6.00 | 
O=C(N[C@H]1CN2CCC1CC2)c1cnc(-c2ccccc2)o1 [Example 155, N-[(3R)-1-azabicyclo[2.2.2]oct-3-yl]-2-phenyl-1,3-oxazole-5-carboxamide 4-methylbenzenesulfonate] | 5.86 | 
COc1ccc(/C=C2\CCCN=C2c2cccnc2)c(OC)c1 [GTS-21] |  | activity at the 5HT3R (5HT3R): little activity
Cc1nccn1CC1CCc2c(c3ccccc3n2C)C1=O (centres unmarked) [Ondansetron] |  | activity at the α7 nAChR (α7 nAChR [2]): little activity
